From patent US9682033B2, “Methods of treating postherpetic neuralgia with a topical formulation of a spiro-oxindole compound” (Teva Pharmaceuticals International GmbH, priority 2015, dated 2017)
Several values for one entry are separate records, joined by “and”; a condition that tells them apart may be missing. Identical values can stand only once. Entries after “also recorded” stand apart in the source; their conditions may differ.

How the values were obtained:
[1] = tested on: streptozotocin-induced neuropathic pain model; assay: Streptozotocin-induced neuropathic pain model, mechanical allodynia (paw withdrawal threshold); format: in vivo, rats; settings: topical, diabetic neuropathic pain model
Description: Topical 4% Test Pharmaceutical Composition was compared with lidocaine and diclofenac for relief of mechanical allodynia in the streptozotocin-induced neuropathic pain model in rats.

[2] = Protein binding in dog plasma; format: in vitro ADME
[3] = Protein binding in human plasma; format: in vitro ADME
[4] = ADME study in the minipig after repeated daily dermal dosing (Biological Example 1); format: in vivo, Göttingen minipig; settings: for mean tissue radioactivity concentration / total radioactivity in tissue: 24 h after [^14C] dermal dose
Description: On the day prior to the first dermal dose, the dorsum and flanks of each animal were carefully clipped using electric clippers and shaved using an electric rotary head shaver (Phillips). Clipping and shaving was as close as possible to the skin, whilst avoiding damage to the dose site. […] The corners of the treatment area (equivalent to about 6% body surface area, 11 cm×19 cm-12 cm×22 cm) were marked using an indelible pen. The process of hair removal was repeated periodically during the dose administration period as necessary.

[5] = Joint penetration and tissue distribution study in domestic pig, multiple-dose topical administration (Biological Example 2); format: in vivo
Description: This study was conducted to evaluate the joint penetration, systemic plasma exposure and tissue distribution of the spiro-oxindole compound in domestic pigs following topical administration of a pharmaceutical composition utilized in the methods of the invention. Fifteen female pigs were used in this study with three pigs in each group. Beginning on Day 1, a pharmaceutical composition of the invention was topically applied to the left radiocarpal joint (carpus) and tibiotarsal joint (hock) twice daily (bid) for 17 days (34 applications) for Groups 1-4 and once daily (qd) for 17 days (17 applications) for Group 5. Pre-dose blood samples (prior to morning dosing) was collected on Days 2, 7, 10, 14 and 17. A full pharmacokinetic sampling was performed on Day 17 (post am dosing) at the following time points: 1, 2, 4, 8 and 12 hr. On the day of necropsy, Day 18, blood was collected prior to euthanasia, each pig was humanely euthanized and dorsal skin and muscle, liver, kidney, heart, lung, brain, intestine, fat, ovaries, urinary bladder, sciatic nerve, and skin, muscle, synovial membrane, and synovial fluid from all 4 joints (2 treated, left carpus and hock, and 2 untreated, right carpus and hock) was collected.
Doses were calculated by measuring the joint circumference and joint width (to include ˜2 cm above and below the joint) to calculate the total surface area for each individual dose. Group 1 received a 2% pharmaceutical composition of the invention and the dose volume for Group 1 was calculated using the total surface area and the designated dose volume of 3 μL/cm^2. The total dose volume was then converted from μL to mL to estimate the dose weight in grams, based on the composition density of 1 g/cm^3. Following is an example (not actual measurements) of calculating the dose:
For Groups 2-5, the dose volume was calculated using the total surface area and the designated dose volume of 3 μL/cm^2 (Groups 2, 3 and 5) or 1 μL/cm^2 (Group 4). […]

CYP450 2D6 = CYP450 2D6 (Homo sapiens, UniProt P10635); assay: Reaction phenotyping with recombinant human CYP450 enzymes: CYP2D6; format: in vitro ADME; settings: recombinant human CYP450 2D6
CYP450 2C9 = CYP450 2C9 (Homo sapiens, UniProt P11712); assay: Reaction phenotyping with recombinant human CYP450 enzymes: CYP2C9; format: in vitro ADME; settings: recombinant human CYP450 2C9
CYP3A4 = assay: Drug-drug interaction study in dogs, oral spiro-oxindole compound with iv midazolam as CYP3A4 substrate; format: in vivo; settings: oral administration
in vivo = assay: in vivo; parameters: species or system rats; settings: rat, po
Description: The no-observed-adverse-effect level (NOAEL) was determined to be 150 mg/kg/day in both males and females. […] The NOAEL for maternal toxicity was 50 mg/kg/day. […] The NOAEL for embryo-fetal toxicity was 150 mg/kg/day.

[6] = Mouse local lymph node assay; format: in vivo
[7] = Phototoxicity assays (in vitro or in vivo)
[8] = Drug-drug interaction study in healthy subjects: pharmacokinetics of the spiro-oxindole compound (Biological Example 5); format: in vivo, human
Description: Pharmacokinetic parameters were derived by noncompartmental analysis.

[9] = tested on: CCI model of neuropathic pain; assay: Chronic constriction injury (CCI) model of neuropathic pain; settings: rat, in vivo
[10] = domestic pig, topical administration to a joint

Sequence of CYP450 2D6 (P10635 whole entry): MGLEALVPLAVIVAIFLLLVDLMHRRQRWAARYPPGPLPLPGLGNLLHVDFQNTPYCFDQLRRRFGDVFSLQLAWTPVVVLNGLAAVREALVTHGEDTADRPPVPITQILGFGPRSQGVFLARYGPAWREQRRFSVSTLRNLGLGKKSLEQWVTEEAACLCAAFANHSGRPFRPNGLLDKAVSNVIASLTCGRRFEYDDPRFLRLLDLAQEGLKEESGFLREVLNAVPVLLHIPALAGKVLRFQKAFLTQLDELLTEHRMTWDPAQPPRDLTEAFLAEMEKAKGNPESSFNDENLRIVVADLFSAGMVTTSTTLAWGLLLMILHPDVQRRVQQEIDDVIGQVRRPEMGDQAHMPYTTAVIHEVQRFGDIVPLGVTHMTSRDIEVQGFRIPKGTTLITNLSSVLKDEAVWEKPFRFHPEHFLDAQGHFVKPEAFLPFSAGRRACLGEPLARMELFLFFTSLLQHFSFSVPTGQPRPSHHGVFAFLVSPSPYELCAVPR
Sequence of CYP450 2C9 (P11712 whole entry): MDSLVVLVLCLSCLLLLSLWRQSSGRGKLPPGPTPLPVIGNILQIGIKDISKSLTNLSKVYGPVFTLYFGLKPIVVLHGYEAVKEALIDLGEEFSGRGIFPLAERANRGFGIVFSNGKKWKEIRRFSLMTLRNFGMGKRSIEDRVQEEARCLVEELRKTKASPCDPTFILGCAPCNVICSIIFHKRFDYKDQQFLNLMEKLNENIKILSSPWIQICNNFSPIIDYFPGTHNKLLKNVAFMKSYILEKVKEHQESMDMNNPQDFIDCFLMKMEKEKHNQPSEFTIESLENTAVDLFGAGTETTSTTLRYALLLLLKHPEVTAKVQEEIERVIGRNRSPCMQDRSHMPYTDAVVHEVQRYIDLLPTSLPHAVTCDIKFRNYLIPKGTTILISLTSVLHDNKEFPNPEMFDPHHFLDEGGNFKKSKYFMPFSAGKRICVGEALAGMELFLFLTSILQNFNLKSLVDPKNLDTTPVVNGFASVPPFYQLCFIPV

With `O=C1N(Cc2ccc(C(F)(F)F)o2)c2ccccc2[C@]12COc1cc3c(cc12)OCO3` [spiro-oxindole compound, (S)-1′-{[5-(trifluoromethyl)furan-2-yl]methyl}spiro[furo[2,3-f][1,3]benzodioxole-7,3′-indol]-2′(1′H)-one] the “efficacy compared with 5% lidocaine” value [1] was “superior efficacy to 5% lidocaine”, the protein bound [2] was 98.3% and the protein bound [3] was 99.4%. For the same molecule, the Cmax ([4]; male, Göttingen, minipig, plasma, topical or ocular, 70 mg ointment/kg, minipigs, 21 days of repeated dermal dosing, read-out: mean maximum observed concentration (Cmax) in plasma) was 15 ng/mL, the “mean tissue radioactivity concentration” value ([4]; minipig, bone marrow) was 154 ng equivalents spiro-oxindole compound/g and the “mean tissue radioactivity concentration” value ([4]; minipig, fat (abdominal / white)) was 273 ng equivalents spiro-oxindole compound/g. The “mean tissue radioactivity concentration” value ([4]; minipig, fat (brown)) was 100 ng equivalents spiro-oxindole compound/g, the “mean tissue radioactivity concentration” value ([4]; minipig, gall bladder contents) was 4870 ng equivalents spiro-oxindole compound/g and the “total radioactivity in tissue” value ([4]; minipig, heart) was 18.5 ng equiv spiro-oxindole compound/g. For the same molecule, the “total radioactivity in tissue” value ([4]; minipig, liver) was 74.9 ng equiv spiro-oxindole compound/g, the “mean tissue radioactivity concentration” value ([4]; minipig, muscle underlying the dose site) was 142 ng equivalents spiro-oxindole compound/g and the “mean tissue radioactivity concentration” value ([4]; minipig, skin from the dose site) was 25500 ng equivalents spiro-oxindole compound/g. For the same molecule, the “mean tissue radioactivity concentration” value ([4]; minipig, skin remote from the dose site) was 111 ng equivalents spiro-oxindole compound/g, the “systemic exposure (in words)” value ([4]; minipigs, repeated daily dermal dosing of 8% ointment) was “low systemic exposure” and the “concentration in the synovial membrane tissue of the treated joint (in words)” value [5, 10] was “micromolar concentrations”. The “plasma concentrations (in words)” value [5, 10] was “nanomolar”, the “spiro-oxindole compound concentration in liver tissue” value ([5]; pig G2 (#4-6): 4% composition, 3 μL/cm^2 bid topical 17 days, individual animals) was 0/0 and the “contribution to spiro-oxindole compound metabolism” value (CYP450 2D6) was “likely to play a less extensive role”. For the same molecule, the “contribution to spiro-oxindole compound metabolism” value (CYP450 2C9) was “limited or no involvement”, the “spiro-oxindole compound plasma concentrations without evidence of a DDI” value (CYP3A4) was “up to 752 ng/mL and ≤ 1.8 μM” and the “drug-drug interaction with iv midazolam (CYP3A4 substrate)” value (CYP3A4; plasma concentrations up to 752 ng/mL (i.e., 1.8 μM)) was “no evidence of a DDI”. For the same molecule, the NOAEL (in vivo; both sexes) was 150 mg/kg/day, the AUC(0-t) (in vivo; female, 50 mg/kg/day) was 18000 ng·h/mL and the Cmax (in vivo; female, 50 mg/kg/day) was 1440 ng/mL. For the same molecule, the AUC(0-t) (in vivo; female, 150 mg/kg/day) was 41500 ng·h/mL, the Cmax (in vivo; female, 150 mg/kg/day) was 3380 ng/mL and the NOAEL (in vivo; female, NOAEL for embryo-fetal toxicity) was 150 mg/kg/day. The NOAEL (in vivo; female, NOAEL for maternal toxicity) was 50 mg/kg/day, the skin sensitization [6] was “not a skin sensitizer” and the phototoxicity potential [7] was “did not show phototoxicity potential”. The “relationship of exposure with CYP2C19 phenotype” value [8] was “no apparent relationship”, the “mean plasma concentration at the follow-up visit (360±24 hours)” value ([8]; after final application of 8% composition) was 0.32629 ng/mL and the Cmax ([8]; both sexes, human, plasma, topical, 8 % composition applied to 53% of BSA, BID, day 9, over 24 hours from the final application, read-out: geometric mean Cmax) was 15.1 ng/mL. For the same molecule, the AUC(0-t) ([8]; both sexes, human, plasma, topical, 8 % composition applied to 53% of BSA, BID, first 12 hours after the final application, read-out: geometric mean AUC0-12) was 133 ng·h/mL, the concentration at 24 hours ([8]; both sexes, human, plasma, topical, 8 % composition applied to 53% of BSA, day 9, after final application of 8% composition (BID, 53% BSA, 7.5 days), read-out: mean plasma concentration at 24 hours postdose) was 11.7 ng/mL and the “geometric mean Ctrough (predose value)” value ([8]; day 9, topical 8% composition BID 53% BSA) was 12.76052 ng/mL. For the same molecule, the “average concentration over the 12-hour period” value ([8]; first 12 hours after the final application) was 11075.55 pg/mL, the “steady state (in words)” value ([8]; topical BID dosing) was “steady state had not been achieved after 7.5 days of dosing; also recorded: did not reach steady state within 7.5 days” and the “efficacy compared with gabapentin” value [9] was “comparable efficacy to gabapentin”.
